Experimental data as given in US20260174875A1 (Novo Nordisk A/S, priority 2023, published 2026).
Numbered stars: 1 amine (or outer) side, 2 acyl side, 3 side chain; on linkers, the order of the positions; unused ones are H or OH. Square brackets hold non-standard residues; d marks the D form. Side chains are listed from the residue outwards. * marks the point of attachment. C20 diacid = O=C(O)CCCCCCCCCCCCCCCCCCC(=O)*; C18 diacid = O=C(O)CCCCCCCCCCCCCCCCC(=O)*; C16 diacid = O=C(O)CCCCCCCCCCCCCCC(=O)*; γGlu = O=C(O)[C@H](CCC(=O)[*:2])N[*:1]; AEEA = NCCOCCOCC(=O)O; Aib = CC(C)(N)C(=O)O

Target: T1, human GLP-1 receptor (hGLP-1R) (Homo sapiens, UniProt P43220)
T1 construct: expressed in transfected cells
Test: GLP-1 receptor assay, method A (CRE-luciferase reporter, BHK cells)
Format: cell-based
Conditions: hGLP-1R Potency, 1% HSA, EC50, method A, in the presence of 1% HSA
Summary of the method: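 Albumin sensitivity is tested by running the assay both without HSA and with 1% (w/v) HSA. Frozen BHK cells carrying hGLP-1R and CRE-driven luciferase are incubated with compound for 3 hours at 37° C. Luminescence is then read with steadylite Plus.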

T1 sequence (P43220 24-463): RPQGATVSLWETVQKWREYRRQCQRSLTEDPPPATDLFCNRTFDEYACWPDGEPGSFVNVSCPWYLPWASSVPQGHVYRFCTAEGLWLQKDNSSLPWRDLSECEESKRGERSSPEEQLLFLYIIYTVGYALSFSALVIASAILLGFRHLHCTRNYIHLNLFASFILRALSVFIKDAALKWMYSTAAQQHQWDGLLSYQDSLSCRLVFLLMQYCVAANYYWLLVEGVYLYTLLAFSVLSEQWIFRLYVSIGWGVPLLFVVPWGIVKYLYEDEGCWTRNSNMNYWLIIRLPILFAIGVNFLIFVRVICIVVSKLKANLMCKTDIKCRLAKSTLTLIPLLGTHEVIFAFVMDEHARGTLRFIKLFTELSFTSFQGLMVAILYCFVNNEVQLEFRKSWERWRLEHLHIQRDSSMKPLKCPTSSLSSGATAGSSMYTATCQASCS

Substance | EC50 [pM]
H[Aib]HGTFTSDYSILLEEQAAREFIEWLLAGGPSSGAGQAPGQAPLASHLSTAQTQRLSAELHK([AEEA-AEEA-γGlu-C18 diacid])LATLPRTETGSGSP-NH2 [Compound 93] | 16.4
Y[Aib]EGTFTSDYSILLEEQAAREFIEWLLAGGPSK([AEEA-AEEA-γGlu-C16 diacid])GEASELSTAALGRLSAELHELATLPRTETGSGSP-NH2 [Compound 11] | 204
Y[Aib]EGTFTSDYSILLEEQAAREFIEWLLAGGPSRGEASHLSTAQTQRLSAELHK([AEEA-AEEA-γGlu-C18 diacid])LATLPRTETGSGSP-NH2 [compound 68] | 51.9
Y[Aib]EGTFTSDYSILLEEQAAREFIEWLLAGGPSSGAGQAPGQAPGASHLSTAQTQRLSAELHK([AEEA-AEEA-γGlu-C18 diacid])LATLPRTETGSGSP-NH2 [compound 52] | 26.9
Y[Aib]EGTFTSDYSILLEEQAAREFIEWLLAGGPSSGAGQAPGQAPGASHLSTAQTQRLSAELHRLATLPK([AEEA-AEEA-γGlu-C18 diacid])TETGSGSP-NH2 [Compound 57] | 29.6
Y[Aib]EGTFTSDYSILLEEQAAREFIEWLLAGGPSSGAGQAPGQAPGASHLSTAQTQRLSAK([AEEA-AEEA-γGlu-C18 diacid])LHRLATLPRTETGSGSP-NH2 [compound 55] | 45.3
Y[Aib]EGTFTSDYSILLEEQAAREFIEWLLAGGPSSGAGQAPGQAPLASHLSTAQTQRLSAELHK([AEEA-AEEA-γGlu-C18 diacid])LATLPRTETGSGSP-NH2 [compound 58] | 25.6

Same assay, conditions: method A, absence of HSA; read-out: hGLP-1R Potency, no HSA, EC50

Substance | EC50 [pM]
H[Aib]HGTFTSDYSILLEEQAAREFIEWLLAGGPSSGAGQAPGQAPLASHLSTAQTQRLSAELHK([AEEA-AEEA-γGlu-C18 diacid])LATLPRTETGSGSP-NH2 [Compound 93] | 4.11
Y[Aib]EGTFTSDYSILLEEQAAREFIEWLLAGGPSK([AEEA-AEEA-γGlu-C16 diacid])GEASELSTAALGRLSAELHELATLPRTETGSGSP-NH2 [Compound 11] | 10.4
Y[Aib]EGTFTSDYSILLEEQAAREFIEWLLAGGPSRGEASHLSTAQTQRLSAELHK([AEEA-AEEA-γGlu-C18 diacid])LATLPRTETGSGSP-NH2 [compound 68] | 12.1
Y[Aib]EGTFTSDYSILLEEQAAREFIEWLLAGGPSSGAGQAPGQAPGASHLSTAQTQRLSAELHK([AEEA-AEEA-γGlu-C18 diacid])LATLPRTETGSGSP-NH2 [compound 52] | 11
Y[Aib]EGTFTSDYSILLEEQAAREFIEWLLAGGPSSGAGQAPGQAPGASHLSTAQTQRLSAELHRLATLPK([AEEA-AEEA-γGlu-C18 diacid])TETGSGSP-NH2 [Compound 57] | 12.8
Y[Aib]EGTFTSDYSILLEEQAAREFIEWLLAGGPSSGAGQAPGQAPGASHLSTAQTQRLSAK([AEEA-AEEA-γGlu-C18 diacid])LHRLATLPRTETGSGSP-NH2 [compound 55] | 23
Y[Aib]EGTFTSDYSILLEEQAAREFIEWLLAGGPSSGAGQAPGQAPLASHLSTAQTQRLSAELHK([AEEA-AEEA-γGlu-C18 diacid])LATLPRTETGSGSP-NH2 [compound 58] | 12.7

Test system: not listed separately
Test: Pharmacokinetic study in minipigs (i.v.)
Format: in vivo, Göttingen minipigs
Conditions: female, Göttingen, minipig, plasma, iv; i.v. administration to minipigs, 2 nmol/kg; read-out: Terminal half-life t1/2 (converted)
Protocol: This is done in a pharmacokinetic (PK) study, where the terminal half-life (t1/2) of the compound or derivative in question is determined. By terminal half-life is meant the time it takes to halve a certain plasma concentration in the terminal elimination phase.
Female Göttingen minipigs, obtained from Ellegaard Göttingen Minipigs (Dalmose, Denmark), approximately 8-12 months of age and weighing approximately 20-30 kg were used in the studies.
After three weeks of acclimatisation two permanent central venous catheters were implanted in vena cava caudalis in each animal. The animals were allowed at least 10 days recovery after the surgery and were then used for repeated pharmacokinetic studies with a suitable wash-out period between successive dosing.
The compounds of the invention were formulated (40 nmol/ml) in the following vehicle: 8 mM phosphate; 250 mM glycerol; 0.007% polysorbate 20, pH 7.4.
Blood samples (for example 1.3 ml) were collected in EDTA (1.3 ml tube containing K3EDTA to yield 1.6 mg K3EDTA/ml blood) coated tubes and then centrifuged at 4° C. and 2000×g for 10 minutes.
Plasma was within 30 min after centrifugation pipetted into Micronic tubes stored on dry ice and were afterwards kept at −20° C. until analysed for plasma concentration of the compounds using LCMS.
Plasma concentrations of the peptides of the invention were assayed by plasma protein precipitation and analysed by liquid chromatography mass spectrometry (LC-MS). Calibrators were prepared by spiking blank plasma from minipigs with the compounds in the typical range from 0.05 to 200 nM. […] The supernatant was diluted with 1 volumes of Milli-Q water containing 1% Formic acid before injection on the LC-MS system. Individual plasma concentration-time profiles were analysed by a non-compartmental pharmacokinetic method (NCA) in Phoenix v. 6.4 (Pharsight Inc., Mountain View, CA, USA), and the resulting terminal half-lives (harmonic mean) determined. The LC-MS analysis was carried out using a TurboFlow HPLC system from Thermo Fisher Scientific (Bremen, Germany) coupled to either a Q Exactive Orbitrap or Altis Triple Quadrupole (TQ) Mass Spectrometer. […] The Orbitrap mass spectrometer were operating in positive ionization mode with a spray voltage of 4.0 kV using Parallel Reaction Monitoring scan mode using 5 m/z isolation windows on the most abundant charge state of the compounds with a resolution of 35K on the Orbitrap MS.
The data was processed using the Quan Browser in the Xcalibur software from Thermo Fisher Scientific (Bremen, Germany) by fitted the data to linear calibration curves (weighed 1/x^2), used for calculating the concentration in the plasma samples. Quality control samples were included.

Substance | half-life [h]
H[Aib]HGTFTSDYSILLEEQAAREFIEWLLAGGPSSGAGQAPGQAPLASHLSTAQTQRLSAELHK([AEEA-AEEA-γGlu-C18 diacid])LATLPRTETGSGSP-NH2 [Compound 93] | 69
Y[Aib]EGTFTSDYSILLEEQAAREFIEWLLAGGPSK([AEEA-AEEA-γGlu-C16 diacid])GEASELSTAALGRLSAELHELATLPRTETGSGSP-NH2 [Compound 11] | 119
Y[Aib]EGTFTSDYSILLEEQAAREFIEWLLAGGPSRGEASHLSTAQTQRLSAELHK([AEEA-AEEA-γGlu-C18 diacid])LATLPRTETGSGSP-NH2 [compound 68] | 125
Y[Aib]EGTFTSDYSILLEEQAAREFIEWLLAGGPSSGAGQAPGQAPGASHLSTAQTQRLSAELHK([AEEA-AEEA-γGlu-C18 diacid])LATLPRTETGSGSP-NH2 [compound 52] | 120
Y[Aib]EGTFTSDYSILLEEQAAREFIEWLLAGGPSSGAGQAPGQAPGASHLSTAQTQRLSAELHK([AEEA-AEEA-γGlu-C20 diacid])LATLPRTETGSGSP-NH2 [Compound 115] | 115
Y[Aib]EGTFTSDYSILLEEQAAREFIEWLLAGGPSSGAGQAPGQAPGASHLSTAQTQRLSAELHRLATLPK([AEEA-AEEA-γGlu-C18 diacid])TETGSGSP-NH2 [Compound 57] | 90
Y[Aib]EGTFTSDYSILLEEQAAREFIEWLLAGGPSSGAGQAPGQAPGASHLSTAQTQRLSAK([AEEA-AEEA-γGlu-C18 diacid])LHRLATLPRTETGSGSP-NH2 [compound 55] | 88
Y[Aib]EGTFTSDYSILLEEQAAREFIEWLLAGGPSSGAGQAPGQAPLASHLSTAQTQRLSAELHK([AEEA-AEEA-γGlu-C18 diacid])LATLPRTETGSGSP-NH2 [compound 58] | 97

Test system: not listed separately
Test: Chemical stability assessment in formulation (UPLC-UV-MS purity loss at 37° C.)
Format: physicochemical
Conditions: 8 mM phosphate buffer pH 7.4, 1 mg/mL, 2 weeks
Summary of the method: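 Degradation tracked by UPLC-UV-MS (formic acid/acetonitrile gradient) on samples drawn over 2 weeks at 37° C. Solutions were made at a 1 mg/mL target in 8 mM phosphate, pH 7.4, kept in sealed vials and frozen after sampling.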

Substance | Purity loss per week at 37° C. [%]
H[Aib]HGTFTSDYSILLEEQAAREFIEWLLAGGPSSGAGQAPGQAPLASHLSTAQTQRLSAELHK([AEEA-AEEA-γGlu-C18 diacid])LATLPRTETGSGSP-NH2 [Compound 93] | 2.8
Y[Aib]EGTFTSDYSILLEEQAAREFIEWLLAGGPSSGAGQAPGQAPGASHLSTAQTQRLSAELHK([AEEA-AEEA-γGlu-C20 diacid])LATLPRTETGSGSP-NH2 [Compound 115] | 1.1
Y[Aib]EGTFTSDYSILLEEQAAREFIEWLLAGGPSSGAGQAPGQAPGASHLSTAQTQRLSAELHRLATLPK([AEEA-AEEA-γGlu-C18 diacid])TETGSGSP-NH2 [Compound 57] | 0.2

Target: T2, human amylin receptor (hAMYR3) (Homo sapiens, UniProt O60896+P30988)
T2 construct: host or cells: BHK cells (Hollex-1 line expressing hCTR(a) and CRE-Luc), further transfected with human RAMP3
Test: Amylin receptor assay, method A (CRE-luciferase reporter, BHK cells)
Format: cell-based
Conditions: hAMYR3 Potency, 1% HSA, EC50, method A, in the presence of 1% HSA

T2 sequence (P30988 25-474): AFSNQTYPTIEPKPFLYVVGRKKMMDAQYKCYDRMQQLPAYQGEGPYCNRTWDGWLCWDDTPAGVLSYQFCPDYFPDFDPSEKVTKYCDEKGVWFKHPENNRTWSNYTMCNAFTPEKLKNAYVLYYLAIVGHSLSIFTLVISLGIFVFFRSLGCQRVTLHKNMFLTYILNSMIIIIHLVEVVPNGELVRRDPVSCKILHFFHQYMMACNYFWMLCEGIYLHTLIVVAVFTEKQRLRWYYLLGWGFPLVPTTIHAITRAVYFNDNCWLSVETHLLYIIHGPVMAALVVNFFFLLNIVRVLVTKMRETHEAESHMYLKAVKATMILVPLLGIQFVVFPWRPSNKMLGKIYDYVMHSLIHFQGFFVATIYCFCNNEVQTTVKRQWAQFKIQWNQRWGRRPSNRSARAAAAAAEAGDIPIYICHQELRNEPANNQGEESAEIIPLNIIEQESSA
T2 sequence (O60896 24-148): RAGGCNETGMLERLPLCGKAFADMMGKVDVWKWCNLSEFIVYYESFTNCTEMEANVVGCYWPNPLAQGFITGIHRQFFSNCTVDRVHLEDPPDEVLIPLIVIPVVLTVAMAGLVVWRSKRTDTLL

Substance | EC50 [pM]
H[Aib]HGTFTSDYSILLEEQAAREFIEWLLAGGPSSGAGQAPGQAPLASHLSTAQTQRLSAELHK([AEEA-AEEA-γGlu-C18 diacid])LATLPRTETGSGSP-NH2 [Compound 93] | 66.4
Y[Aib]EGTFTSDYSILLEEQAAREFIEWLLAGGPSK([AEEA-AEEA-γGlu-C16 diacid])GEASELSTAALGRLSAELHELATLPRTETGSGSP-NH2 [Compound 11] | 211
Y[Aib]EGTFTSDYSILLEEQAAREFIEWLLAGGPSRGEASHLSTAQTQRLSAELHK([AEEA-AEEA-γGlu-C18 diacid])LATLPRTETGSGSP-NH2 [compound 68] | 230
Y[Aib]EGTFTSDYSILLEEQAAREFIEWLLAGGPSSGAGQAPGQAPGASHLSTAQTQRLSAELHK([AEEA-AEEA-γGlu-C18 diacid])LATLPRTETGSGSP-NH2 [compound 52] | 119
Y[Aib]EGTFTSDYSILLEEQAAREFIEWLLAGGPSSGAGQAPGQAPGASHLSTAQTQRLSAELHRLATLPK([AEEA-AEEA-γGlu-C18 diacid])TETGSGSP-NH2 [Compound 57] | 85
Y[Aib]EGTFTSDYSILLEEQAAREFIEWLLAGGPSSGAGQAPGQAPGASHLSTAQTQRLSAK([AEEA-AEEA-γGlu-C18 diacid])LHRLATLPRTETGSGSP-NH2 [compound 55] | 34
Y[Aib]EGTFTSDYSILLEEQAAREFIEWLLAGGPSSGAGQAPGQAPLASHLSTAQTQRLSAELHK([AEEA-AEEA-γGlu-C18 diacid])LATLPRTETGSGSP-NH2 [compound 58] | 134

Same assay, conditions: method A, absence of HSA; read-out: hAMYR3 Potency, no HSA, EC50

Substance | EC50 [pM]
H[Aib]HGTFTSDYSILLEEQAAREFIEWLLAGGPSSGAGQAPGQAPLASHLSTAQTQRLSAELHK([AEEA-AEEA-γGlu-C18 diacid])LATLPRTETGSGSP-NH2 [Compound 93] | 2.23
Y[Aib]EGTFTSDYSILLEEQAAREFIEWLLAGGPSK([AEEA-AEEA-γGlu-C16 diacid])GEASELSTAALGRLSAELHELATLPRTETGSGSP-NH2 [Compound 11] | 12.8
Y[Aib]EGTFTSDYSILLEEQAAREFIEWLLAGGPSRGEASHLSTAQTQRLSAELHK([AEEA-AEEA-γGlu-C18 diacid])LATLPRTETGSGSP-NH2 [compound 68] | 2.57
Y[Aib]EGTFTSDYSILLEEQAAREFIEWLLAGGPSSGAGQAPGQAPGASHLSTAQTQRLSAELHK([AEEA-AEEA-γGlu-C18 diacid])LATLPRTETGSGSP-NH2 [compound 52] | 2.85
Y[Aib]EGTFTSDYSILLEEQAAREFIEWLLAGGPSSGAGQAPGQAPGASHLSTAQTQRLSAELHRLATLPK([AEEA-AEEA-γGlu-C18 diacid])TETGSGSP-NH2 [Compound 57] | 3
Y[Aib]EGTFTSDYSILLEEQAAREFIEWLLAGGPSSGAGQAPGQAPGASHLSTAQTQRLSAK([AEEA-AEEA-γGlu-C18 diacid])LHRLATLPRTETGSGSP-NH2 [compound 55] | 2.22
Y[Aib]EGTFTSDYSILLEEQAAREFIEWLLAGGPSSGAGQAPGQAPLASHLSTAQTQRLSAELHK([AEEA-AEEA-γGlu-C18 diacid])LATLPRTETGSGSP-NH2 [compound 58] | 2.91
